From US20260176249A1, “PROTEIN KINASE INHIBITOR, PREPARATION METHOD THEREFOR, AND APPLICATION THEREOF” (SHANDONG LUYE PHARMACEUTICAL CO., LTD., priority 2021, published 2026)
pIC50: −log10 of the molar value. Like-named read-outs stand apart in the source and are kept apart here.

How the values were obtained:
[1] = Metabolic stability in mouse liver microsomes; assay type: in vitro ADME; details: for CLint scaled at 1 µM / half-life at 1 µM / microsomal CLint at 1 µM: mouse; for CLint scaled at 1 µM / half-life at 1 µM: pH 7.4; for microsomal CLint at 1 µM: pH 7.4, read-out: CLint(mic)
Method in brief: (§1)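 Compounds incubated at 37 °C with mouse, rat or human liver microsomes in 100 mM phosphate buffer pH 7.4, started with NADPH/MgCl2 and sampled at 0–60 min. Parent remaining quantified by LC-MS. T1/2 and CLint(mic) derived from depletion, scaled to CLint using 45 mg protein/g liver and species liver/body weight ratios.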

[2] = molecular target: T1, PLK1 kinase (Homo sapiens, UniProt P53350); experiment: Inhibitory activity on PLK1 kinase; assay type: biochemical; details: for Imax: maximum effect caused by the compound at the test concentration; for pIC50: PLK1 kinase, highest concentration 1 μM, 10 points, read-out: IC50
T1 construct: purchased Carnabio (Carna Biosciences) 05-157
Procedure: Detection solution PerkinElmer #TRF0218-M
Detection instrument PerkinElemer EnVision
a. Using the Echo machine, the compounds to be tested were diluted by 1:3 on a 384-well plate, and the highest concentration was 1 μM, with a total of 10 concentration points, and each concentration was tested in duplicate wells.
b. 5 μL/well of PLK1 kinase and peptide substrate mixture were added to the assay plate (containing controls).
d. The reaction was initiated by adding 5 μL/well of ATP solution;
e. The assay plate was centrifuged at 1000 rpm for about 15 seconds, a film was used to seal the assay plate which was incubated at 23° C. for a period of time;
f. A detection solution was added to all wells of the assay plate;
g. The assay plate was centrifuged at 1000 rpm for approximately 15 seconds, a film was used to seal the assay plate which was incubated at 23° C. for 60 min.
h. The assay plate was read on EnVision. The test results were analyzed using XLFIT5 software.

[3] = Metabolic stability in human liver microsomes; assay type: in vitro ADME; details: for CLint scaled at 1 µM / half-life at 1 µM / microsomal CLint at 1 µM: human; for CLint scaled at 1 µM / half-life at 1 µM: pH 7.4; for microsomal CLint at 1 µM: pH 7.4, read-out: CLint(mic)
Method in brief: as §1

[4] = test system: HCT116 cells; experiment: Inhibitory activity on HCT116 cell proliferation (ATPlite); assay type: cell-based; details: Homo sapiens, HCT-116, HCT116 cells, 72 h
Procedure: Cell culture medium: RPMI1640+10% FBS (GBICO)
Cell culture plate: 96-well plate (Shanghai Jingan Biotechnology Co., Ltd.)
Detection kit: ATPlite 1step Luminescence (PerkinElmer)
Detection instrument: BioTek multifunctional microplate reader
2. Test method: HCT116 cells in the logarithmic growth phase were seeded into a white-wall clear-bottom 96-well plate at a density of 720 cells per well, and cultured overnight in a 37° C., 5% CO2 incubator. […] After adding the drug, culturing was continued for 72 h in a 37° C., 5% CO2 incubator.
GraphPad Prism 7.0 was used to process the data, the cell inhibition rate curve was obtained and IC50 was calculated.

[5] = Metabolic stability in rat liver microsomes; assay type: in vitro ADME; details: for CLint scaled at 1 µM / half-life at 1 µM / microsomal CLint at 1 µM: rat; for CLint scaled at 1 µM / half-life at 1 µM: pH 7.4; for microsomal CLint at 1 µM: pH 7.4, read-out: CLint(mic)
Method in brief: as §1

[6] = read-out: half inhibitory concentration

T1 sequence (P53350 whole entry): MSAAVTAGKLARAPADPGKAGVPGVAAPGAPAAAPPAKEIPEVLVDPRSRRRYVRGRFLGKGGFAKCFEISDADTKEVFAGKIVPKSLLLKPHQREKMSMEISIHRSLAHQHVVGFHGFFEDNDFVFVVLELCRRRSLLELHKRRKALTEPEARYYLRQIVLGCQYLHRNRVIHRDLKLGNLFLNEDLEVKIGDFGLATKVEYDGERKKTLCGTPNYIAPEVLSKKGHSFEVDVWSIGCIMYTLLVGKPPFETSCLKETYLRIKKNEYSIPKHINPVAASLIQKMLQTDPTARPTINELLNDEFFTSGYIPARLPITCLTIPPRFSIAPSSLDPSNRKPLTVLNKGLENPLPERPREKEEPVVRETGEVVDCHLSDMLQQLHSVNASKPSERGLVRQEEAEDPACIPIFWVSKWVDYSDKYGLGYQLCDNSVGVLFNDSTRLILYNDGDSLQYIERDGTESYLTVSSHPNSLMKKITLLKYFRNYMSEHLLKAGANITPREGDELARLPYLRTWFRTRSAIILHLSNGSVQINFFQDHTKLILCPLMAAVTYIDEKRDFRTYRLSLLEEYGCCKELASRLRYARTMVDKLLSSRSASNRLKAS

Row | Structure (SMILES) | 60 min remaining amount [1] [%] | Clearance rate [1] | CLint scaled at 1 µM [1] [mL/min/kg] | half-life at 1 µM [1] [min] | microsomal CLint at 1 µM [1] [µL/min/mg] | Imax [2] [%] | 60 min remaining amount [3] [%] | Clearance rate [3] | CLint scaled at 1 µM [3] [mL/min/kg] | half-life at 1 µM [3] [min] | microsomal CLint at 1 µM [3] [µL/min/mg] | pIC50 ([4]; read-out: IC50) | 60 min remaining amount [5] [%] | Clearance rate [5] | CLint scaled at 1 µM [5] [mL/min/kg] | half-life at 1 µM [5] [min] | microsomal CLint at 1 µM [5] [µL/min/mg] | pIC50 [2] | pIC50 [4, 6]
1 | CN1CCN(c2ccc(OC(F)(F)F)c(Nc3ncc4c(n3)-c3c(c(C(N)=O)nn3CCO)CC4)c2)CC1 [Onvansertib, reference compound] | 21.5 | Medium | 202 | 27.2 | 51 | 100.02 | 64.8 | Medium | 15.3 | 81.5 | 17 | 7.38 | 15.7 | Medium | 110 | 22.7 | 61 |  | 
2 | Cn1nc(C(N)=O)c2ccc3cnc(Nc4cc(N5CCN(CCO)CC5)ccc4OC(F)(F)F)nc3c21 [Compound 16] | 24.6 | Medium | 184 | 29.9 | 46.4 | 98.76 | 23.3 | Medium | 44.1 | 28.3 | 49 | 6.30 | 21.6 | Medium | 90 | 27.7 | 50.5 | 8.32 | 
3 | Cn1nc(C(N)=O)c2c1-c1nc(Nc3cc(N4CCN(CCO)CC4)ccc3OC(F)(F)F)ncc1CC2 [Compound 20] | 15.9 | High | 238 | 23.1 | 60 | 99.29 | 26.5 | Medium | 39.1 | 31.9 | 43.4 | 6.84 | 21.6 | Medium | 95.4 | 26.2 | 53 | 8.89 | 
4 | CN1CCN(c2ccc(OC(F)(F)F)c(Nc3ncc4c(n3)-c3c(c(C(N)=O)cn3CCO)CC4)c2)CC1 [Compound 2] | 26.7 | Medium | 175 | 31.4 | 44.2 | 99.81 | 49.9 | Medium | 22.7 | 55 | 25.2 | 7.57 | 17.0 | Medium | 103 | 24.3 | 57 | 9.00 | 7.57
5 | CN1CCN(c2ccc(OCC(F)(F)F)c(Nc3ncc4c(n3)-c3c(c(C(N)=O)nn3CCO)CC4)c2)CC1 [Compound 24] | 58.2 | Medium | 74.4 | 73.7 | 18.8 | 99.48 | 40.1 | Medium | 28.6 | 43.6 | 31.8 | 7.49 | 47.9 | Medium | 46.4 | 53.7 | 25.8 | 8.92 | 7.49
6 | CN1CCN(c2ccc(OC(F)(F)F)c(Nc3ncc4c(n3)-c3c(c(C(N)=O)nn3CCC#N)CC4)c2)CC1 [Compound 4] | 1.33 | High | 1230 | 4.47 | 310 | 99.51 | 23.7 | Medium | 44.1 | 28.3 | 49 | 6.48 | 2.76 | High | 211 | 11.8 | 117 | 8.79 | 
7 | CN1CCN(c2ccc(OC(F)(F)F)c(Nc3ncc4c(n3)-c3c(c(C(=O)NN)nn3CCO)CC4)c2)CC1 [Compound 13] | 38.6 | Medium | 123 | 44.7 | 31 | 99.41 | 58.5 | Medium | 17.5 | 71.4 | 19.4 | 6.08 | 27.8 | Medium | 74.5 | 33.5 | 41.4 | 8.60 | 
